Results on one compound are retold here after patent US5783597A, “2,5-disubstituted thiophenes: inhibitors of 5-lipoxygenase and inducible cyclooxygenase (COX-2) enzymes, composition and use” (Ortho Pharmaceutical Corporation, priority 1997, dated 1998).

In assay [1] the target is T1, Human Prostaglandin H2 Synthase Typ II (Cox-2) (Homo sapiens, UniProt P35354).
T1 construct: endogenous in cells; host or cells: ECV-304 cells treated with PMA and ionomycin for 16 hours
T1 sequence (P35354 18-604): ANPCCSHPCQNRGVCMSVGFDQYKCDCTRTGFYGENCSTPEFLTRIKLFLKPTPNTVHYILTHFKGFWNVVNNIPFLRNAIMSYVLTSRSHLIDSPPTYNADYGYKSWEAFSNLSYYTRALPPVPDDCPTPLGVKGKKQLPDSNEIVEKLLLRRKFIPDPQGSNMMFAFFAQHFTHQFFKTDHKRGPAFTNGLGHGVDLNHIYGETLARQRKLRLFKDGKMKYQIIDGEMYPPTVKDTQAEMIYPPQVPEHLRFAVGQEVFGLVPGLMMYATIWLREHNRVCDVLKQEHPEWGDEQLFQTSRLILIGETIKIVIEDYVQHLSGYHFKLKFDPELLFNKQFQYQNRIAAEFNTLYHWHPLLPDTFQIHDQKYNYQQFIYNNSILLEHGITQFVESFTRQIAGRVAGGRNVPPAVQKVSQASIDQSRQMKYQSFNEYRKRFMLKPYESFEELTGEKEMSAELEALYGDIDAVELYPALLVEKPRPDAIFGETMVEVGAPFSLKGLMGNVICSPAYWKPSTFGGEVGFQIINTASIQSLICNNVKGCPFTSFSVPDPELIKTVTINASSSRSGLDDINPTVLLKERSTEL
In words: Human Prostaglandin H2 Synthase Typ II (Cox-2) Whole Cell Assay, ECV-304 cells (Procedure III). Particulars: ECV-304 whole cells, PGE2 produced; read-out: Procedure III (COX-2) Wh Cell IC50. In kind it is cell-based. Here is the method: Human Prostaglandin H2 Synthase Typ II (Cox-2) Whole Cell Assay (Multiple Concentrations)
ECV-304 (human, endothelial, umbilical cord) cells are maintained in culture in a suitable medium, and are trypsinized and plated at a density of 1×10^6 cells per well of a 6 well plate prior to assay. Approximately 28 hours later, 50 μg/ml PMA and […] ionomycin (both final concentrations) are added to each well and incubated for an additional 16 hours. Vehicle or test compounds are incubated with the cells for five minutes prior to initiation of Cox-2 enzyme activity by the addition of 30 μM arachidonic acid. Ten minutes later, an aliquot of the supernatant is withdrawn and the amount of PGE2 present quantitated by radioimmunoassay. Activity, reported as percent inhibition of PGE2 produced, is calculated as follows: […]

The next assay deals with LTB4 levels. In words: Carrageenan-induced inflammation in subcutaneous chambers in beagle dogs: LTB4 levels in fluid exudate (Procedure IV). It is filed as in vivo. Particulars: oral. Here is the method: Carrageenan-Induced Localized Inflammation In Subcutaneous Chambers Implanted In Beagle Dogs
Sterile perforated teflon chambers (wiffle golf balls) were surgically implanted subcutaneously in the dorsal neck fold of beagle dogs (8-13 kg, mixed sex). After a recovery period of 1 month, a 1 ml sample of fluid exudate from each dog was aspirated from within the chamber using a 1 ml syringe and 20 gauge 1 inch needle inserted through one of the perforations in the ball. Immediately after obtaining the sample, 1.5 ml of 0.33% sterile carrageenan lambda (Sigma Chemical Co., St. Louis, Mo.) was injected into the chamber. Dilutions of the baseline samples were made in saline and analyzed for leukocyte count using a Coulter Counter (6.08-50 μm range). The sample was also analyzed for concentrations of PGE2 and LTB4 by adding 200 μl of sample to 1 ml ethanol and centrifuging the precipitate (1,500 X g, 7 min). The supernatant was aspirated and stored at 0° C. until enzyme linked immunosorbant assays (ELISAs) were performed (ELISA Technologies, Lexington, Ky.). […]
Drug effects can be evaluated on several important aspects of inflammation using this in-vivo assay. […] Selectivity of a COX inhibitor can be determined by comparing PGE2 inhibition in peripheral blood (COX-1) to that of the inflammatory fluid exudate in the chamber (COX-2).

By IC50 is commonly meant the concentration needed to halve the response being measured. What is called ED50 is the dose that gives a 50% effect, or the effect in half of the subjects. Regarding `CS(=O)(=O)Nc1ccc(Oc2ccc(F)cc2)s1` [Example 1], the IC50 in assay [1] is 1810 nM. Besides, in the assay with LTB4 levels (Canis lupus familiaris, inflammatory chamber exudate, read-out: ED50 for inhibition of fluid LTB4 levels), the ED50 is below 0.01 mg/kg. Moreover, the “inhibition of LTB4 levels measured in the fluid” value in the assay on LTB4 levels (inflammatory chambers) was “dose related inhibition”.
